Experiment [1] deals with T1, human histamine H4 receptor (Homo sapiens, UniProt Q9H3N8).
T1 construct: expressed in transfected cells; host or cells: SK-N-MC cells or COS7 cells, transiently transfected; membrane preparation
In words: Binding assay on recombinant human histamine H4 receptor (3H-histamine displacement). The protocol: Binding Assay on Recombinant Human Histamine H4 Receptor
SK-N-MC cells or COS7 cells were transiently transfected with pH4R and grown in 150 cm^2 tissue culture dishes. Cells were washed with saline solution, scraped with a cell scraper and collected by centrifugation (1000 rpm, 5 min). Cell membranes were prepared by homogenization of the cell pellet in 20 mM Tris-HCl with a polytron tissue homogenizer for 10 s at high speed. Homogenate was centrifuged at 1000 rpm for 5 min at 4° C. The supernatant was then collected and centrifuged at 20,000× g for 25 min at 4° C. The final pellet was resuspended in 50 mM Tris-HCl. Cell membranes were incubated with ^3H-histamine (5-70 nM) in the presence or absence of excess histamine (10000 nM). Incubation occurred at room temperature for 45 min. Membranes were harvested by rapid filtration over Whatman GF/C filters and washed 4 times with ice-cold 50 mM Tris HCl. Filters were then dried, mixed with scintillant and counted for radioactivity. SK-N-MC or COS7 cells expressing human histamine H4 receptor were used to measure the affinity of binding of other compounds and their ability to displace ^3H-ligand binding by incubating the above-described reaction in the presence of various concentrations of inhibitor or compound to be tested.

For a further experiment, the system named is Mast cells. In words: Mast cell chemotaxis assay (histamine-induced, transwell). The class given is cell-based. The following applies: 10 μM histamine, 3 h at 37° C. The protocol: Mast Cell Chemotaxis Assay
In addition, it is known that mast cell numbers increase in a number of inflammatory conditions. Some of this is due to chemotaxis of mast cells to the sites of inflammation. This chemotaxis to specific agents can be mimicked in vitro. Transwells (Costar, Cambridge, Mass.) of a pore size 8 μm were coated with 100 μL of 100 ng/mL human fibronectin (Sigma) for 2 h at room temperature. After removal of the fibronectin, 600 μL of RPMI with 5% BSA, in the presence of 10 μM histamine, was added to the bottom chamber. To test the various histamine receptor (HR) antagonists, 10 μM and/or 1 μM solutions of the test compounds were added to the top and bottom chambers. Mast cells (2×10^5/well) were added to the top chamber. The plates were incubated for 3 h at 37° C. Transwells were removed and the cells in the bottom chamber were counted for sixty seconds using a flow cytometer.

For experiment [2], the system named is human eosinophils. Description: Inhibition of eosinophil shape change (gated autofluorescence forward scatter assay). The following applies: for effect on histamine-induced shape change: antagonist, human eosinophils; for Fold Change (eosinophil shape change): 10 μM antagonist.
Experiment [3] relates to human eosinophils. The following applies: cited from earlier work.
Where [4] appears, read: Table 1, competition with 3H-histamine, Cheng-Prusoff, KD 5 nM, ligand 5 nM, read-out: Ki.

pIC50, pKi: −log10 of the molar value. Where two headings read alike, the source gives them in different places.

T1 sequence (Q9H3N8 whole entry): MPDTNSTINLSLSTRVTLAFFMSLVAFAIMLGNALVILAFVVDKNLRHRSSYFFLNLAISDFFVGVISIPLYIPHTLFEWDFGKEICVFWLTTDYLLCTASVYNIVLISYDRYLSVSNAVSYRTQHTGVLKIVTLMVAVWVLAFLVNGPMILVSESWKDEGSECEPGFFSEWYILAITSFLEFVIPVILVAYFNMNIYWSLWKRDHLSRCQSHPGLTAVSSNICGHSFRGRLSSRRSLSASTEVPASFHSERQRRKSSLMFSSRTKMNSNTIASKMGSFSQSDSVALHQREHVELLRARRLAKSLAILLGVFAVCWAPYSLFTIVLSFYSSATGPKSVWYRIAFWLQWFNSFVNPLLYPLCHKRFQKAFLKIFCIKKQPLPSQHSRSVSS

In the case of “3-(3-Methyl-piperazin-1-yl)-6-trifluoromethyl-1H-quinoxalin-2-one; and 3-(3-Methyl-piperazin-1-yl)-7-trifluoromethyl-1H-qui noxalin-2-one [Example 28]”, the pKi in experiment [1] (setting [4]) was 6.13.

As to “3-(4-Methyl-piperazin-1-yl)-6-trifluoromethyl-1H-qui noxalin-2-one; and 3-(4-Methyl-piperazin-1-yl)-7-trifluoromethyl-1H-quinoxalin-2-one [Example 11]”, the pKi in experiment [1] (setting [4]) was 7.96.

For “3-piperazin-1-yl-6-trifluoromethyl-1H-quinoxalin-2-one; and 3-piperazin-1-yl-7-trifluoromethyl-1H-quinoxalin-2-one [Example 24]”, the negative-log Ki (pKi) in experiment [1] (setting [4]) is 6.33.

Take “6-Chloro-3-(3-methyl-piperazin-1-yl)-1H-quinoxalin-2-one; and 7-Chloro-3-(3-methyl-piperazin-1-yl)-1H-quinoxalin-2-one [Example 27]”: in experiment [1] (read-out: Ki), the pKi was 6.33.

As for “6-Chloro-3-(4-methyl-piperazin-1-yl)-1H-quinoxalin-2-one; and 7-Chloro-3-(4-methyl-piperazin-1-yl)-1H-quinoxalin-2-one [Example 8]”, the negative-log Ki (pKi) in experiment [1] (read-out: Ki) was 7.68.

“6-Chloro-7-fluoro-3-(4-methyl-piperazin-1-yl)-1H-quinoxalin-2-one; and 7-Chloro-6-fluoro-3-(4-methyl-piperazin-1-yl)-1H-quinoxalin-2-one [Example 25]”: the pKi in experiment [1] (setting [4]) was 7.92; in experiment [1] (repeated in the mast cell chemotaxis table, read-out: Binding Assay Ki), 7.92. Moreover, the “% Inh” value in the experiment with Mast cells (HR antagonist 1 μM) amounted to 81%; in the experiment on Mast cells (HR antagonist 10 μM), 79%.

Take “7-Chloro-3-piperazin-1-yl-1H-quinoxalin-2-one; and 6-Chloro-3-piperazin-1-yl-1H-quinoxalin-2-one [Example 26]”: the pKi in experiment [1] (read-out: Ki) is 6.82.

With “7-Chloro-6-methyl-3-(4-methyl-piperazin-1-yl)-1H-quinoxalin-2-one; and 6-Chloro-7-methyl-3-(4-methyl-piperazin-1-yl)-1H-quinoxalin-2-one [Example 18]”, the pKi in experiment [1] (setting [4]) was 6.95.

In the case of `CN1CCN(C(=O)c2cc3cc(Cl)ccc3[nH]2)CC1` [(5-chloro-1H-indol-2-yl)-(4-methyl-piperazin-1-yl)-methanone], the pIC50 in the experiment with human eosinophils [2] (Homo sapiens, Eosinophil, read-out: IC50, inhibition of histamine-induced eosinophil shape change) is 6.57.

For the compound `Cc1cccc2nc(N3CCN(C)CC3)c(=O)[nH]c12` [Example 1, 8-Methyl-3-(4-methyl-piperazin-1-yl)-1H-quinoxalin-2-one], the pKi in experiment [1] (read-out: Ki) is 8.22. The “% Inh” value in the experiment on Mast cells (HR antagonist 1 μM) is on record as 76%.

In the case of `Cc1cccc2nc(N3CCNCC3)c(=O)[nH]c12` [Example 2, 8-Methyl-3-piperazin-1-yl-1H-quinoxalin-2-one], in experiment [1] (read-out: Ki), the negative-log Ki (pKi) was 7.80. Besides, the “% Inh” value with Mast cells (HR antagonist 1 μM) was found to be 50%.

In the case of `O=c1[nH]c2c([N+](=O)[O-])cccc2nc1N1CCNCC1` [Example 3, 8-Nitro-3-piperazin-1-yl-1H-quinoxalin-2-one], the pKi in experiment [1] (setting [4]) is 6.19.

With `O=c1[nH]c2c(F)c(F)ccc2nc1N1CCNCC1` [Example 4, 7,8-Difluoro-3-piperazin-1-yl-1H-quinoxalin-2-one], in experiment [1] (setting [4]), the negative-log Ki (pKi) was 6.37.

As to `Cc1cccc2nc(N3CCNC(C)C3)c(=O)[nH]c12` (stereo not drawn) [Example 5, 8-Methyl-3-(3-methyl-piperazin-1-yl)-1H-quinoxalin-2-one], the negative logarithm of the Ki (pKi) in experiment [1] (read-out: Ki) is 7.40.

Consider `CC1CN(c2nc3ccccc3[nH]c2=O)CCN1` (stereo not drawn) [Example 6, 3-(3-Methyl-piperazin-1-yl)-1H-quinoxalin-2-one], for which, in experiment [1] (setting [4]), the pKi is 6.17.

On to `Cc1cccc2nc(N3CCN(CCO)CC3)c(=O)[nH]c12` [Example 7, 3-[4-(2-Hydroxy-ethyl)-piperazin-1-yl]-8-methyl-1H-quinoxalin-2-one], for which, in experiment [1] (setting [4]), the pKi is 6.07.

With `CN1CCN(c2nc3cc(Cl)ccc3[nH]c2=O)CC1` [Example 9, 6-Chloro-3-(4-methyl-piperazin-1-yl)-1H-quinoxalin-2-one], the pKi in experiment [1] (read-out: Ki) is 7.08.

In the case of `CN1CCN(c2nc3ccc(Cl)cc3[nH]c2=O)CC1` [Example 10, 7-Chloro-3-(4-methyl-piperazin-1-yl)-1H-quinoxalin-2-one], the pKi in experiment [1] (read-out: Ki) is 7.51.

`CN1CCN(c2nc3cc(C(F)(F)F)ccc3[nH]c2=O)CC1` [Example 12, 3-(4-Methyl-piperazin-1-yl)-6-trifluoromethyl-1H-quinoxalin-2-one]: in experiment [1] (setting [4]), the pKi is 7.62. Moreover, the “% Inh” value in the experiment with Mast cells (HR antagonist 1 μM) came to 99%.

As to `CN1CCN(c2nc3ccc(C(F)(F)F)cc3[nH]c2=O)CC1` [Example 13, 3-(4-Methyl-piperazin-1-yl)-7-trifluoromethyl-1H-quinoxalin-2-one], the negative logarithm of the Ki (pKi) in experiment [1] (setting [4]) is 7.72.

As to `CN1CCN(c2nc3cc(Cl)c(Cl)cc3[nH]c2=O)CC1` [Example 14, 6,7-Dichloro-3-(4-methyl-piperazin-1-yl)-1H-quinoxalin-2-one], in experiment [1] (setting [4]), the negative logarithm of the Ki (pKi) was 7.49. Moreover, the “% Inh” value in the experiment on Mast cells (HR antagonist 1 μM) was 71%; in the experiment with Mast cells (HR antagonist 10 μM), 80%.

For `O=c1[nH]c2cc(Cl)c(Cl)cc2nc1N1CCNCC1` [Example 15, 6,7-Dichloro-3-piperazin-1-yl-1H-quinoxalin-2-one], in experiment [1] (read-out: Ki), the pKi was 7.25.

Consider `CN1CCCN(c2nc3cc(Cl)c(Cl)cc3[nH]c2=O)CC1` [Example 16, 6,7-Dichloro-3-(4-methyl-[1,4]diazepan-1-yl)-1H-quinoxalin-2-one], for which the pKi in experiment [1] (setting [4]) was 5.79.

Turning to `CN1CCN(c2nc3cc(F)c(F)cc3[nH]c2=O)CC1` [Example 17, 6,7-Difluoro-3-(4-methyl-piperazin-1-yl)-1H-quinoxalin-2-one], the pKi in experiment [1] (setting [4]) was 7.13.

Consider `Cc1cc2nc(N3CCN(C)CC3)c(=O)[nH]c2cc1Cl` [Example 19, 7-Chloro-6-methyl-3-(4-methyl-piperazin-1-yl)-1H-quinoxalin-2-one], for which, in experiment [1] (setting [4]), the pKi is 7.03.

`Cc1cc2[nH]c(=O)c(N3CCN(C)CC3)nc2cc1Cl` [Example 20, 6-Chloro-7-methyl-3-(4-methyl-piperazin-1-yl)-1H-quinoxalin-2-one]: the pKi in experiment [1] (setting [4]) was 7.08.

Turning to `CN1CCN(c2nc3cc(F)ccc3[nH]c2=O)CC1` [Example 21, 6-Fluoro-3-(4-methyl-piperazin-1-yl)-1H-quinoxalin-2-one], the pKi in experiment [1] (read-out: Ki) was 7.41.

As for `CN1CCN(c2nc3ccc(F)c(F)c3[nH]c2=O)CC1` [Example 22, 7,8-Difluoro-3-(4-methyl-piperazin-1-yl)-1H-quinoxalin-2-one], in experiment [1] (setting [4]), the negative logarithm of the Ki (pKi) is 7.52.

Take `CN1CCN(c2nc3cc(C(F)(F)F)cc(Cl)c3[nH]c2=O)CC1` [Example 23, 8-Chloro-3-(4-methyl-piperazin-1-yl)-6-trifluoromethyl-1H-quinoxalin-2-one]: in experiment [1] (setting [4]), the pKi is 6.78.

On to `C[C@@H](N)Cc1c[nH]cn1` [R-α-methylhistamine], for which, in the experiment on human eosinophils [3], the “activation of calcium mobilization” value was “activate calcium mobilization” and the “potency relative to histamine in calcium mobilization” value was “significantly less potent than histamine”.

For `CN(C)CCOC(c1ccccc1)c1ccccc1` [diphenhydramine], the “effect on histamine-induced shape change” value in the experiment with human eosinophils [2] is given as “did not alter”. The “Fold Change (eosinophil shape change)” value in the experiment with human eosinophils [2] (histamine 0 μM) was found to be 1.00; in the experiment with human eosinophils [2] (histamine 0.01 μM), 1.03; in the experiment on human eosinophils [2] (histamine 0.1 μM) it was 1.18; with human eosinophils [2] (histamine 1 μM), 1.50; in the experiment on human eosinophils [2] (histamine 10 μM) it was 1.63.

Turning to `NCCc1c[nH]cn1` [histamine], the “activation of calcium mobilization” value in the experiment with human eosinophils [3] is “activate calcium mobilization”. For the same compound, the “shape change in eosinophils (agonist effect)” value in the experiment on human eosinophils [2] (histamine alone, 0.01-10 μM) is “induces a dose-dependent shape change”.

For the compound `CNC(=C[N+](=O)[O-])NCCSCc1ccc(CN(C)C)o1` [ranatidine], in the experiment on human eosinophils [2], the “effect on histamine-induced shape change” value is “did not alter”. For the same compound, the “Fold Change (eosinophil shape change)” value in the experiment on human eosinophils [2] (histamine 0 μM) is listed as 1.00; in the experiment on human eosinophils [2] (histamine 0.01 μM), 1.04; in the experiment with human eosinophils [2] (histamine 0.1 μM) it was 1.21; in the experiment with human eosinophils [2] (histamine 1 μM), 1.49; in the experiment on human eosinophils [2] (histamine 10 μM), 1.64.

Take `S=C(NC1CCCCC1)N1CCC(c2cnc[nH]2)CC1` [thioperamide]: in the experiment on human eosinophils [3] (responses to histamine and R-α-methylhistamine), the “blockade of calcium mobilization responses” value is “blocked”.
